In assay [1] the target is T1, androgen receptor (AR-LBD) (Rattus norvegicus, UniProt P15207).
T1 construct: 5 μL of 2×AR-LBD/Fluoromone AL Red Complex contained in the kit; purchased Invitrogen
T1 sequence (P15207 651-882 limits assumed): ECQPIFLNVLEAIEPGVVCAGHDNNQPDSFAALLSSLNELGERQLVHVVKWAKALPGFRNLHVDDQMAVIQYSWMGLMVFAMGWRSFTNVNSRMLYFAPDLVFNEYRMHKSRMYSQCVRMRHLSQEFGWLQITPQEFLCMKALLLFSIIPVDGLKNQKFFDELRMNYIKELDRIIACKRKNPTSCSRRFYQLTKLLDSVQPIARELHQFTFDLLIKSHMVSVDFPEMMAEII
As to the kind of experiment: Evaluation of androgen receptor affinity (PolarScreen Androgen Receptor Competitor Assay Kit, Red; fluorescence polarization). Particulars: 22° C. for 5 hours, relative to binding rate of 1 μM DHT, read-out: AR affinity (pEC50) (converted). The gist of the method: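 Fluorescence polarization read-out after 5 h at 22° C of compound with a red-fluorophore-labelled AR-LBD complex. Displacement is scaled against 1 μM DHT, and the log reciprocal of the concentration reaching half that effect gives pEC50 via four-parameter curve fitting.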
Background: Fluorescence polarisation rises when a labelled molecule tumbles more slowly, as on binding a larger partner.

A further assay addresses T2, human androgen receptor (Homo sapiens, UniProt P10275).
T2 construct: expressed in transfected cells; host or cells: HEK293
T2 sequence (P10275 1-920): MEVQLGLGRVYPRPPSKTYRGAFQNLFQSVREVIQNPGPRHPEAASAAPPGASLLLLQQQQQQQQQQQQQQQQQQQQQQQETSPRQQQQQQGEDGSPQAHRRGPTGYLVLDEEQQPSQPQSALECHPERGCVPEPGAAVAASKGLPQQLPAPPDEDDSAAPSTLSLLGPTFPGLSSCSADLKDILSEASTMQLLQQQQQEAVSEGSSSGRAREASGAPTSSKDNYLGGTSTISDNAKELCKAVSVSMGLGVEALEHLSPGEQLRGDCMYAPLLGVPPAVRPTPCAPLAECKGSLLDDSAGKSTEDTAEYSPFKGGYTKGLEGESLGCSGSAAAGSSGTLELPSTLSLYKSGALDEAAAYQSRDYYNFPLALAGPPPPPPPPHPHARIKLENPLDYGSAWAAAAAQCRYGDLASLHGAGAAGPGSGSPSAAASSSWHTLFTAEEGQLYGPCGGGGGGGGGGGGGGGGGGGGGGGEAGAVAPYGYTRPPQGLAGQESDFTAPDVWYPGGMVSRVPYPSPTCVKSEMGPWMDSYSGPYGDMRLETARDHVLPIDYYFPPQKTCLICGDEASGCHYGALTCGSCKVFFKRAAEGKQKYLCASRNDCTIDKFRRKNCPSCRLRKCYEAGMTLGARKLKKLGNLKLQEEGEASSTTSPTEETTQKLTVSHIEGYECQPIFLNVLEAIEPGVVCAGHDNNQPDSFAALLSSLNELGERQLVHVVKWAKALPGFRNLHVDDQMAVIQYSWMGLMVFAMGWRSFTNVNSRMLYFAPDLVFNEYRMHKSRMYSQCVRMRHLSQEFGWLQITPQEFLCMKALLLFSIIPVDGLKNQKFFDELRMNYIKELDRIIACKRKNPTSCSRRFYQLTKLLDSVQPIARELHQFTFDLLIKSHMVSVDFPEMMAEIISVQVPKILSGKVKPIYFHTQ
In words: Reporter assay of an androgen receptor responsive sequence (luciferase, transiently transfected HEK293 cells). It is filed as cell-based. The conditions noted are these: 24 hours incubation, relative to activity of 100 nM DHT, read-out: AR transcriptive activity (pEC50) (converted). A digest of the protocol:
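HEK293 cells transiently transfected for 3 h with ARE-firefly luciferase, full-length human AR and TK-Renilla plasmids, then exposed to compound for 24 h at 37 °C in 5% charcoal-treated FBS/DMEM. Dual-Glo luminescence read; pEC50 from 4-parameter fit relative to 100 nM DHT.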
Background: A reporter such as luciferase makes a cellular process visible.

Bounds are passed on as bounds.

For `Cc1sc(N(Cc2ccc(F)c(C(F)(F)F)c2)c2ccc(C#N)cc2)nc1C(=O)NS(C)(=O)=O` [Example 173, 2-[4-cyano-N-[[4-fluoro-3-(trifluoromethyl)phenyl]methyl]anilino]-5-methyl-N-methylsulfonyl-thiazole-4-carboxamide], the EC50 in assay [1] was 25.1 nM; on human androgen receptor it was 79.4 nM.
Turning to `Cc1sc(N(Cc2cc(F)cc3cccnc23)c2ccc(C#N)cc2)nc1C(=O)NS(C)(=O)=O` [Example 174, 2-[4-cyano-N-[(6-fluoro-8-quinolyl)methyl]anilino]-5-methyl-N-methylsulfonyl-thiazole-4-carboxamide], the EC50 in assay [1] is 100 nM; at human androgen receptor, 316 nM.
The corresponding values for `Cc1sc(N(Cc2ccc(F)c3cccnc23)c2ccc(C#N)cc2)nc1C(=O)NS(C)(=O)=O` [Example 175, 2-[4-cyano-N-[(5-fluoro-8-quinolyl)methyl]anilino]-5-methyl-N-methylsulfonyl-thiazole-4-carboxamide] are 79.4 nM and 126 nM.
The corresponding values for `Cc1sc(N(Cc2ccc(F)cc2OC(F)F)c2ccc(C#N)cc2)nc1C(=O)NS(C)(=O)=O` [Example 176, 2-[4-cyano-N-[[2-(difluoromethoxy)-4-fluoro-phenyl]methyl]anilino]-5-methyl-N-methylsulfonyl-thiazole-4-carboxamide] are 63.1 nM and 501 nM.
In the case of `Cc1sc(N(Cc2ccc(F)cc2Br)c2ccc(C#N)cc2)nc1C(=O)NS(C)(=O)=O` [Example 177, 2-[N-[(2-bromo-4-fluoro-phenyl)methyl]-4-cyano-anilino]-5-methyl-N-methylsulfonyl-thiazole-4-carboxamide], the EC50 is 79.4 nM in assay [1] and 501 nM at human androgen receptor.
Regarding `Cc1sc(N(Cc2ccc(OC(F)(F)F)cc2F)c2ccc(C#N)cc2)nc1C(=O)NS(C)(=O)=O` [Example 178, 2-[4-cyano-N-[[2-fluoro-4-(trifluoromethoxy)phenyl]methyl]anilino]-5-methyl-N-methylsulfonyl-thiazole-4-carboxamide], the EC50 in assay [1] was 39.8 nM; at human androgen receptor, 501 nM.
Take `Cc1sc(N(Cc2ncc(F)cc2Cl)c2ccc(C#N)cc2)nc1C(=O)NS(C)(=O)=O` [Example 179, 2-[N-[(3-chloro-5-fluoro-2-pyridyl)methyl]-4-cyano-anilino]-5-methyl-N-methylsulfonyl-thiazole-4-carboxamide]: the EC50 is 501 nM in assay [1] and 1000 nM on human androgen receptor.
The corresponding values for `Cc1sc(N(Cc2ncc(Cl)cc2Cl)c2ccc(C#N)cc2)nc1C(=O)NS(C)(=O)=O` [Example 180, 2-[4-cyano-N-[(3,5-dichloro-2-pyridyl)methyl]anilino]-5-methyl-N-methylsulfonyl-thiazole-4-carboxamide] are 251 nM and 501 nM.
In the case of `Cc1sc(N(Cc2ccc(Br)c(F)c2)c2ccc(C#N)cc2)nc1C(=O)NS(C)(=O)=O` [Example 181, 2-[N-[(4-bromo-3-fluoro-phenyl)methyl]-4-cyano-anilino]-5-methyl-N-methylsulfonyl-thiazole-4-carboxamide], the EC50 in assay [1] was 31.6 nM; at human androgen receptor, 25.1 nM.
The like results for `Cc1sc(N(Cc2ccc(Br)cc2C#N)c2ccc(C#N)cc2)nc1C(=O)NS(C)(=O)=O` [Example 182, 2-[N-[(4-bromo-2-cyano-phenyl)methyl]-4-cyano-anilino]-5-methyl-N-methylsulfonyl-thiazole-4-carboxamide] were, in that order, 631 nM and greater than 10000 nM.
Consider `Cc1sc(N(Cc2ccc(Br)cc2Cl)c2ccc(C#N)cc2)nc1C(=O)NS(C)(=O)=O` [Example 183, 2-[N-[(4-bromo-2-chloro-phenyl)methyl]-4-cyano-anilino]-5-methyl-N-methylsulfonyl-thiazole-4-carboxamide], for which the EC50 was 63.1 nM in assay [1] and 501 nM at human androgen receptor.
On to `Cc1sc(N(Cc2ccc(Cl)cc2C#N)c2ccc(C#N)cc2)nc1C(=O)NS(C)(=O)=O` [Example 184, 2-[N-[(4-chloro-2-cyano-phenyl)methyl]-4-cyano-anilino]-5-methyl-N-methylsulfonyl-thiazole-4-carboxamide], for which the EC50 in assay [1] is 501 nM; on human androgen receptor it was greater than 10000 nM.
The corresponding values for `Cc1sc(N(Cc2ccc(Br)cc2F)c2ccc(C#N)cc2)nc1C(=O)NS(C)(=O)=O` [Example 185, 2-[N-[(4-bromo-2-fluoro-phenyl)methyl]-4-cyano-anilino]-5-methyl-N-methylsulfonyl-thiazole-4-carboxamide] are 39.8 nM and 63.1 nM.
The corresponding values for `Cc1sc(N(Cc2cc(C(F)(F)F)ccn2)c2ccc(C#N)cc2)nc1C(=O)NS(C)(=O)=O` [Example 186, 2-[4-cyano-N-[[4-(trifluoromethyl)-2-pyridyl]methyl]anilino]-5-methyl-N-methylsulfonyl-thiazole-4-carboxamide] are 200 nM and 631 nM.
In the case of `Cc1sc(N(Cc2ccc(C(F)(F)F)c(C#N)c2)c2ccc(C#N)cc2)nc1C(=O)NS(C)(=O)=O` [Example 187, 2-[4-cyano-N-[[3-cyano-4-(trifluoromethyl)phenyl]methyl]anilino]-5-methyl-N-methylsulfonyl-thiazole-4-carboxamide], the EC50 in assay [1] was 63.1 nM; at human androgen receptor, 79.4 nM.
The corresponding values for `COCCCS(=O)(=O)NC(=O)c1nc(N(Cc2ccc(Br)cn2)c2ccc(C#N)cc2)sc1C` [Example 188, 2-[N-[(5-bromo-2-pyridyl)methyl]-4-cyano-anilino]-N-(3-methoxypropylsulfonyl)-5-methyl-thiazole-4-carboxamide] are 316 nM and 200 nM.
With `COCCCS(=O)(=O)NC(=O)c1nc(N(Cc2ccc(OC(F)F)c(Cl)c2)c2ccc(C#N)cc2)sc1C` [Example 189, 2-[N-[[3-chloro-4-(difluoromethoxy)phenyl]methyl]-4-cyano-anilino]-N-(3-methoxypropylsulfonyl)-5-methyl-thiazole-4-carboxamide], the results for the EC50 (in assay [1]; on human androgen receptor) were 31.6 nM and 158 nM, respectively.
`COCCCS(=O)(=O)NC(=O)c1nc(N(Cc2ccc(Cl)c(Cl)c2)c2ccc(C#N)cc2)sc1C` [Example 190, 2-[4-cyano-N-[(3,4-dichlorophenyl)methyl]anilino]-N-(3-methoxypropylsulfonyl)-5-methyl-thiazole-4-carboxamide]: the EC50 in assay [1] is 15.8 nM; on human androgen receptor, 63.1 nM.
The corresponding values for `COCCCS(=O)(=O)NC(=O)c1nc(N(Cc2ccc(Br)cc2)c2ccc(C#N)cc2)sc1C` [Example 191, 2-[N-[(4-bromophenyl)methyl]-4-cyano-anilino]-N-(3-methoxypropylsulfonyl)-5-methyl-thiazole-4-carboxamide] are 31.6 nM and 50.1 nM.
`COCCCS(=O)(=O)NC(=O)c1nc(N(Cc2ccc(F)cc2Cl)c2ccc(C#N)cc2)sc1C` [Example 192, 2-[N-[(2-chloro-4-fluoro-phenyl)methyl]-4-cyano-anilino]-N-(3-methoxypropylsulfonyl)-5-methyl-thiazole-4-carboxamide]: the figures for the EC50 (in assay [1]; at human androgen receptor) were 63.1 nM and 1260 nM, respectively.
The like results for `Cc1sc(N(Cc2ccc(Cl)cc2OC(F)F)c2ccc(C#N)cc2)nc1C(=O)NS(C)(=O)=O` [Example 193, 2-[N-[[4-chloro-2-(difluoromethoxy)phenyl]methyl]-4-cyano-anilino]-5-methyl-N-methylsulfonyl-thiazole-4-carboxamide] were, in that order, 31.6 nM and 501 nM.
The like results for `COCCCS(=O)(=O)NC(=O)c1nc(N(Cc2ccc(Cl)cc2OC(F)F)c2ccc(C#N)cc2)sc1C` [Example 194, 2-[N-[[4-chloro-2-(difluoromethoxy)phenyl]methyl]-4-cyano-anilino]-N-(3-methoxypropylsulfonyl)-5-methyl-thiazole-4-carboxamide] were, in that order, 63.1 nM and 2510 nM.

The record behind these values is patent US10689354B2, “Aminoazole derivative” (Teijin Pharma Limited, priority 2015, dated 2020).
